Experimental data taken from patent US20180147177A1, “Antibacterial Compositions Comprising Copper Oxo-Hydroxide Nanoparticles and Their Uses as Biocidal Agents” (Medical Research Council, priority 2015, published 2018).

Columns and labels:
[1] = tested on: Escherichia coli NCTC11100; experiment: Bacterial growth inhibition assay (turbidimetric, OD 595 nm, HMM medium); assay type: cell-based; details: E. coli, no copper
Experimental: Antimicrobial activity was assessed through determination of bacterial growth inhibition in the presence of copper compounds. A turbidimetric assay was used to follow bacterial concentration over time as this is proportional to optical density (OD at 595 nm) in liquid medium, allowing an easy screening of bacterial growth over time. Escherichia coli NCTC11100 and Staphylococcus aureus RN4220 were the tested microorganisms in this assay. Stock bacterial colonies were kept in cultivated in agar plates and on the day before the experiment, one colony was transferred into 10 ml of HMM liquid medium and grown overnight at 30° C. under constant shaking (80 rpm) in an incubator. […] Copper stock solutions (refer to section 2.1) were sequentially diluted in HMM to achieve typical concentrations between 0.8 and 100 ppm Cu in a volume of 0.1 ml. Next, 0.1 ml of bacterial culture was added and incubated with copper at 30° C. under constant agitation (80 rpm). Final copper concentrations in the assay ranged between 0.4 and 50 ppm, and OD was measured every hour for a typical period of 7-8 hours to follow bacterial growth. OD background, i.e. OD absorbance not caused by bacteria, was determined to remove readout interference from copper and broth. Growth inhibition was calculated as follows: […]

[2] = Copper release from a gel matrix (HEC gel release assay); assay type: physicochemical; details: HEC gel with 250 ppm Cu, bicarbonate solution pH 7, over 24 hours
Experimental: This assay consisted of exposing the copper-containing HEC—with specific surface area (7.1 cm^2)—to a bicarbonate buffered solution at pH 7.0±0.2, following copper concentration over time.
10 g of the gel was poured into a 50 ml falcon tube and let settle down overnight. 10 ml of a 50 mM NaHCO3 solution at pH 7±0.2 were carefully transferred on the surface of the gel. Samples were collected over 24 hours and copper concentration in the overhead solution was determined by ICP-OES (see section 2.4.1.).

[3] = Copper dispersibility in MOPS buffer pH 7.4; assay type: physicochemical; details: MOPS buffer pH 7.4±0.2, copper added up to 500 ppm
Experimental: Stock copper materials were diluted in 50 mM 3-(N-morpholino)propanesulfonic acid (MOPS) buffer at pH 7.4±0.2. Final copper concentrations varied between 10 and 500 ppm. Microparticulate copper was removed by centrifugation at 16000 g for 5 minutes. Total copper and supernatant (i.e. disperse fraction) were analysed by Inductively Coupled Plasma-Optical Emission Spectroscopy (ICP-OES) as described in section 2.4.1.

E. coli MC1061 = experiment: Minimum bactericidal concentration (liquid incubation, then agar plates); assay type: cell-based; details: n = 1
[4] = tested on: Human dermal fibroblast cells (cell line CCD-25SK); experiment: Cell proliferation of skin fibroblasts (IncuCyte confluence AUC); assay type: cell-based; details: CCD-25Sk skin fibroblasts, 48 hours
Experimental: CuCl2 and AgNO3 were also tested in parallel as positive controls. Percentage of cell confluence was determined experimentally using an IncuCyte Zoom and plotted overtime to determine the area under the curve (AUC) for each concentration tested. Cell proliferation was used as an indication for cell toxicity and was determined by normalising the AUC of cells exposed to the testing compounds against those of cells growing at normal rates (control).

V. fischeri = experiment: Minimum bactericidal concentration (liquid incubation, then agar plates); assay type: cell-based; details: n = 1
S. aureus RN4220 = experiment: as above; assay type: cell-based; details: n = 1
B. subtilis BR151 = experiment: as above; assay type: cell-based; details: n = 1
P. aeruginosa = experiment: as above; assay type: cell-based; details: n = 1

Question: With `O.O.O=C([O-])CN(CCN(CC(=O)[O-])CC(=O)O)CC(=O)O.[Na+].[Na+]` [EDTA, disodium ethylenediaminetetraacetate (EDTA) di-hydrate] as the compound, how does the “antibacterial effect of the complexing agent alone (in words)” value [1] read?
Answer: had antibacterial effect

Question: Which “Cu released from HEC matrix” value [2] does the source give for `O.O.[Cl][Cu][Cl]` [CuCl2, CuCl2.2H2O] here?
Answer: ≤ 10 ppm

Question: What about the “dispersible fraction (maximum)” value [3] of the same compound?
Answer: ca. 10 ppm of Cu

Question: And the MBC (E. coli MC1061; 4 h incubation)?
Answer: 100 ppm Cu

Question: And the MBC (E. coli MC1061; 24 h incubation)?
Answer: 50 ppm Cu

Question: What about the MBC (E. coli MC1061; 48 h incubation) of the same compound?
Answer: 10 ppm Cu

Question: What about the MBC (E. coli MC1061; 72 h incubation) of the same compound?
Answer: 50 ppm Cu

Question: What about the MBC (E. coli MC1061; 96 h incubation) of the same compound?
Answer: 50 ppm Cu

Question: And the “concentration from which cell proliferation decreased” value [4]?
Answer: ≥ 50000 ng/mL

Question: And the MBC (V. fischeri; 4 h incubation)?
Answer: 100 ppm Cu

Question: What about the MBC (V. fischeri; 24 h incubation) of the same compound?
Answer: 100 ppm Cu

Question: What about the MBC (V. fischeri; 48 h incubation) of the same compound?
Answer: >100 ppm Cu

Question: And the MBC (V. fischeri; 72 h incubation)?
Answer: >100 ppm Cu

Question: And the MBC (V. fischeri; 96 h incubation)?
Answer: >100 ppm Cu

Question: What about the MBC (S. aureus RN4220; 4 h incubation) of the same compound?
Answer: 100 ppm Cu

Question: And the MBC (S. aureus RN4220; 24 h incubation)?
Answer: 50 ppm Cu

Question: And the MBC (S. aureus RN4220; 48 h incubation)?
Answer: 50 ppm Cu

Question: And the MBC (S. aureus RN4220; 72 h incubation)?
Answer: 50 ppm Cu

Question: And the MBC (S. aureus RN4220; 96 h incubation)?
Answer: 50 ppm Cu

Question: And the MBC (B. subtilis BR151; 4 h incubation)?
Answer: >100 ppm Cu

Question: And the MBC (B. subtilis BR151; 24 h incubation)?
Answer: >100 ppm Cu

Question: What about the MBC (B. subtilis BR151; 48 h incubation) of the same compound?
Answer: >100 ppm Cu

Question: And the MBC (B. subtilis BR151; 72 h incubation)?
Answer: >100 ppm Cu

Question: And the MBC (B. subtilis BR151; 96 h incubation)?
Answer: >100 ppm Cu

Question: And the MBC (P. aeruginosa; 4 h incubation)?
Answer: 100 ppm Cu

Question: What about the MBC (P. aeruginosa; 24 h incubation) of the same compound?
Answer: 100 ppm Cu

Question: What about the MBC (P. aeruginosa; 48 h incubation) of the same compound?
Answer: 100 ppm Cu

Question: And the MBC (P. aeruginosa; 72 h incubation)?
Answer: 100 ppm Cu

Question: What about the MBC (P. aeruginosa; 96 h incubation) of the same compound?
Answer: 100 ppm Cu

Question: With `O=[N+]([O-])[O-].[Ag+]` [AgNO3] as the compound, how does the “concentration from which cell proliferation decreased” value [4] read?
Answer: ≥ 10000 ng/mL
